Measured values taken from patent US6949542B2, “Dihydro-benzo[b][1,4]diazepin-2-one derivatives” (Hoffman-La Roche Inc., priority 2002, dated 2005).

Target: T1, rat mGlu2 receptor (Rattus norvegicus, UniProt P31421)
T1 construct: expressed in transfected cells; vector pcD1mGR2
Assay: [3H]-LY354740 binding on mGlu2 transfected CHO cell membranes
Settings: inhibition of 10 nM [3H]-LY354740 binding, mGlu2 transfected CHO cell membranes, room temperature, 1 hour; read-out: Ki mGlu2

T1 sequence (P31421 19-872): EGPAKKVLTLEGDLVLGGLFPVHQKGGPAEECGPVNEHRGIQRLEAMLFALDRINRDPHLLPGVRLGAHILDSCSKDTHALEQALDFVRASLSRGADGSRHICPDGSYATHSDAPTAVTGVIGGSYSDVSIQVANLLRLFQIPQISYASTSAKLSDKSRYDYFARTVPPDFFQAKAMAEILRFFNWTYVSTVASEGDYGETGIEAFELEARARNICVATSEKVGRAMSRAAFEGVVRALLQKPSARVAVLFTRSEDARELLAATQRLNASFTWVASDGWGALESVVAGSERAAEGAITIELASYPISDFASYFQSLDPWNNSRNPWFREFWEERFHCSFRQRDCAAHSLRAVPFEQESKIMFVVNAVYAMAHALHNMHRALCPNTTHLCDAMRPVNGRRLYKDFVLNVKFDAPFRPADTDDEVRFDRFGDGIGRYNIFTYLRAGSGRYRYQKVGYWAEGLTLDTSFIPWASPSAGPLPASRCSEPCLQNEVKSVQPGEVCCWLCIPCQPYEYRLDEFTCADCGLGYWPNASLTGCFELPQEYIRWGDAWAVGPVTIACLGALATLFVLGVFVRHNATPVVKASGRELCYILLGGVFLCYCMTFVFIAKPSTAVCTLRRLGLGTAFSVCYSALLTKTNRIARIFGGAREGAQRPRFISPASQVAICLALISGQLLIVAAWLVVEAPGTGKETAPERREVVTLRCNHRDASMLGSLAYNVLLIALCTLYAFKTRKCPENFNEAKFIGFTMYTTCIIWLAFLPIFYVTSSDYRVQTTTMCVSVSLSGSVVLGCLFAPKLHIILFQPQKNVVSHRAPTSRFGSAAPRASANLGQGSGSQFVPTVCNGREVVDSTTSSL

| Ki [nM] | Compound |
| --- | --- |
| 32.6 | O=C1CC(c2cccc(-c3ccccn3)c2)=Nc2ccc(-n3cccc3)cc2N1 [Example 54, 4-(3-Pyridin-2-yl-phenyl)-8-pyrrol-1-yl-1,3-dihydro-benzo[b][1,4]diazepin-2-one] |

Tested on: not given
Assay: not given
Settings: not given

| Compound | melting point [°C] |
| --- | --- |
| CCc1ccc(-c2cccc(C3=Nc4cc(OCC(F)(F)F)c(C(F)(F)F)cc4NC(=O)C3)c2)cn1 [Example 193, 4-[3-(6-Ethyl-pyridin-3-yl)-phenyl]-7-(2,2,2-trifluoro-ethoxy)-8-trifluoromethyl-1,3-dihydro-benzo[b][1,4]diazepin-2-one] | 191 |
| Cc1cncc(-c2cccc(C3=Nc4cc(Cl)c(C)cc4NC(=O)C3)c2)n1 [Example 132, 7-Chloro-8-methyl-4-[3-(6-methyl-pyrazin-2-yl)-phenyl]-1,3-dihydro-benzo[b][1,4]diazepin-2-one] | 254 |
| CC(C)CNc1cc2c(cc1Cl)NC(=O)CC(c1cccc(-c3cncnc3)c1)=N2 [Example 96, 8-Chloro-7-isobutylamino-4-(3-pyrimidin-5-yl-phenyl)-1,3-dihydro-benzo[b][1,4]diazepin-2-one] | 241 |
| Cc1cc(C2CC2)ncc1-c1cccc(C2=Nc3cc(OCC(F)(F)F)c(C(F)(F)F)cc3NC(=O)C2)c1 [Example 248, 4-[3-(6-Cyclopropyl-4-methyl-pyridin-3-yl)-phenyl]-7-(2,2,2-trifluoro-ethoxy)-8-trifluoromethyl-1,3-dihydro-benzo[b][1,4]diazepin-2-one] | 206 |
| O=C1CC(c2cccc(-c3cccnc3)c2)=Nc2cc(Cl)c(C(F)(F)F)cc2N1 [Example 183, 7-Chloro-4-(3-pyridin-3-yl-phenyl)-8-trifluoromethyl-1,3-dihydro-benzo[b][1,4]diazepin-2-one] | 226 to 227 |
| Cc1cc(-c2cccc(C3=Nc4cc(C)c(C(F)(F)F)cc4NC(=O)C3)c2)c(C)cn1 [Example 135, 4-[3-(2,5-Dimethyl-pyridin-4-yl)-phenyl]-7-methyl-8-trifluoromethyl-1,3-dihydro benzo[b][1,4]diazepin-2-one] | 211 |
| Cc1nccc(-c2cccc(C3=Nc4ccc(C(F)(F)F)cc4NC(=O)C3)c2)n1 [Example 304, 4-[3-(2-Methyl-pyrimidin-4-yl)-phenyl]-8-trifluoromethyl-1,3-dihydro-benzo[b][1,4]diazepin-2-one] | 212 to 226 |
| Cc1cc(-c2cccc(C3=Nc4ccc(-n5cccc5)cc4NC(=O)C3)c2)ccn1 [Example 108, 4-[3-(2-Methyl-pyridin-4-yl)-phenyl]-8-pyrrol-1-yl-1,3-dihydro-benzo[b][1,4]diazepin-2-one] | 206 |
| O=C1CC(c2cccc(-c3ccccn3)c2)=Nc2cc(C(F)(F)F)c(Cl)cc2N1 [Example 107, 8-Chloro-4-(3-pyridin-2-yl-phenyl)-7-trifluoromethyl-1,3-dihydro-benzo[b][1,4]diazepin-2-one] | 208 |
| O=C1CC(c2cccc(-c3cnccn3)c2)=Nc2cc(OCC(F)(F)F)c(C(F)(F)F)cc2N1 [Example 112, 4-(3-Pyrazin-2-yl-phenyl)-7-(2,2,2-trifluoro-ethoxy)-8-trifluoromethyl-1,3-dihydro-benzo[b][1,4]diazepin-2-one] | 242 |
| CCCN(C)c1cc2c(cc1C(F)(F)F)NC(=O)CC(c1cccc(-c3ccncc3)c1)=N2 [Example 81, 7-(Methyl-propyl-amino)-4-(3-pyridin-4-yl-phenyl)-8-trifluoromethyl-1,3-dihydro-benzo[b][1,4]diazepin-2-one] | 192 |
| Cc1cc(-c2cccc(C3=Nc4cc(Cl)c(Cl)cc4NC(=O)C3)c2)cc(CO)n1 [Example 404, 7,8-Dichloro-4-[3-(2-hydroxymethyl-6-methyl-pyridin-4-yl)-phenyl]-1,3-dihydro-benzo[b][1,4]diazepin-2-one] | 234 |
| CCOc1cc2c(cc1C(F)(F)F)NC(=O)CC(c1cccc(-c3ccnc(C(F)(F)F)c3)c1)=N2 [Example 269, 7-Ethoxy-8-trifluoromethyl-4-[3-(2-trifluoromethyl-pyridin-4-yl)-phenyl]-1,3-dihydro-benzo[b][1,4]diazepin-2-one] | 251 |
| COc1ccc(-c2cccc(C3=Nc4ccc(OC(F)(F)F)cc4NC(=O)C3)c2)cn1 [Example 212, 4-[3-(6-Methoxy-pyridin-3-yl)-phenyl]-8-trifluoromethoxy-1,3-dihydro-benzo[b][1,4]diazepin-2-one] | 186 |
| Cc1cc2c(cc1C(F)(F)F)NC(=O)CC(c1cccc(-c3cccnc3C3CC3)c1)=N2 [Example 221, 4-[3-(2-Cyclopropyl-pyridin-3-yl)-phenyl]-7-methyl-8-trifluoromethyl-1,3-dihydro-benzo[b][1,4]diazepin-2-one] | 173 to 175 |
| O=C1CC(c2cccc(-c3ncccn3)c2)=Nc2ccc(C(F)(F)F)cc2N1 [Example 338, 4-(3-Pyrimidin-2-yl-phenyl)-8-trifluoromethyl-1,3-dihydro-benzo[b][1,4]diazepin-2-one] | 236 to 237 |
| CN(C)c1ccc(-c2cccc(C3=Nc4cc(OCC(F)(F)F)c(C(F)(F)F)cc4NC(=O)C3)c2)cn1 [Example 218, 4-[3-(6-Dimethylamino-pyridin-3-yl)-phenyl]-7-(2,2,2-trifluoro-ethoxy)-8-trifluoromethyl-1,3-dihydro-benzo[b][1,4]diazepin-2-one] | 240 to 241 |
| Cc1cc2c(cc1C(F)(F)F)NC(=O)CC(c1cccc(-c3ccccn3)c1)=N2 [Example 46, 7-Methyl-4-(3-pyridin-2-yl-phenyl)-8-trifluoromethyl-1,3-dihydro-benzo[b][1,4]diazepin-2-one] | 251 to 253 |
| Cc1cc2c(cc1Cl)NC(=O)CC(c1cccc(-c3ccnc(CC(C)C)c3)c1)=N2 [Example 277, 8-Chloro-4-[3-(2-isobutyl-pyridin-4-yl)-phenyl]-7-methyl-1,3-dihydro-benzo[b][1,4]diazepin-2-one] | 198 |

Results, then the compound that gave them:

| melting point [°C] | Compound |
| --- | --- |
| 161 | CC(C)CN(C)c1cc2c(cc1Cl)NC(=O)CC(c1cccc(-c3ccnc(CO)c3)c1)=N2 [Example 368, 8-Chloro-4-[3-(2-hydroxymethyl-pyridin-4-yl)-phenyl]-7-(isobutyl-methyl-amino)-1,3-dihydro-benzo[b][1,4]diazepin-2-one] |
| 222 | O=C1CC(c2cccc(-c3cncnc3)c2)=Nc2cc(Cl)c(C(F)(F)F)cc2N1 [Example 95, 7-Chloro-4-(3-pyrimidin-5-yl-phenyl)-8-trifluoromethyl-1,3-dihydro-benzo[b][1,4]diazepin-2-one] |
| 219 to 220 | Cc1ncccc1-c1cccc(C2=Nc3ccc(C(F)(F)F)cc3NC(=O)C2)c1 [Example 17, 4-[3-(2-Methyl-pyridin-3-yl)-phenyl]-8-trifluoromethyl-1,3-dihydro-benzo[b][1,4]diazepin-2-one] |
| 250 to 253 | Cc1cc(-c2cccc(C3=Nc4cc(N(C)C)c(C(F)(F)F)cc4NC(=O)C3)c2)nc(N)n1 [Example 317, 4-[3-(2-Amino-6-methyl-pyrimidin-4-yl)-phenyl]-7-dimethylamino-8-trifluoromethyl-1,3-dihydro-benzo[b][1,4]diazepin-2-one] |
| 210 | CCOc1cc2c(cc1C(F)(F)F)NC(=O)CC(c1cccc(-c3ccc(C)nc3)c1)=N2 [Example 238, 7-Ethoxy-4-[3-(6-methyl-pyridin-3-yl)-phenyl]-8-trifluoromethyl-1,3-dihydro-benzo[b][1,4]diazepin-2-one] |
| 201 | O=C1CC(c2cccc(-c3ccnc(CO)c3)c2)=Nc2cc(OCC(F)(F)F)c(C(F)(F)F)cc2N1 [Example 286, 4-[3-(2-Hydroxymethyl-pyridin-4-yl)-phenyl]-7-(2,2,2-trifluoro-ethoxy)-8-trifluoromethyl-1,3-dihydro-benzo[b][1,4]diazepin-2-one] |
| 233 to 237 | Cc1ccc(-c2cccc(C3=Nc4cc(N(C)C)c(C(F)(F)F)cc4NC(=O)C3)c2)cn1 [Example 10, 7-Dimethylamino-4-[3-(6-methyl-pyridin-3-yl)-phenyl]-8-trifluoromethyl-1,3-dihydro-benzo[b][1,4]diazepin-2-one] |
| 257 | Cc1cc(-c2cccc(C3=Nc4cc(C)c(C(F)(F)F)cc4NC(=O)C3)c2)cc(C2CC2)n1 [Example 257, 4-[3-(2-Cyclopropyl-6-methyl-pyridin-4-yl)-phenyl]-7-methyl-8-trifluoromethyl-1,3-dihydro-benzo[b][1,4]diazepin-2-one] |
| 225 to 226 | C=Cc1cc2c(cc1C(F)(F)F)NC(=O)CC(c1cccc(-c3cc(C)nc(C)c3)c1)=N2 [Example 241, 4-[3-(2,6-Dimethyl-pyridin-4-yl)-phenyl]-8-trifluoromethyl-7-vinyl-1,3-dihydro-benzo[b][1,4]diazepin-2-one] |
| 239 to 242 | Cc1cc2c(cc1C(F)(F)F)NC(=O)CC(c1cccc(-c3cc(N(C)C)ncn3)c1)=N2 [Example 332, 4-[3-(6-Dimethylamino-pyrimidin-4-yl)-phenyl]-7-methyl-8-trifluoromethyl-1,3-dihydro-benzo[b][1,4]diazepin-2-one] |
| 234 | Cc1cc2c(cc1Cl)NC(=O)CC(c1cccc(-c3ccnc(CO)c3)c1)=N2 [Example 282, 8-Chloro-4-[3-(2-hydroxymethyl-pyridin-4-yl)-phenyl]-7-methyl-1,3-dihydro-benzo[b][1,4]diazepin-2-one] |
| 220 to 222 | Cc1cc(-c2cccc(C3=Nc4cc(Cl)c(Cl)cc4NC(=O)C3)c2)ncn1 [Example 313, 7,8-Dichloro-4-[3-(6-methyl-pyrimidin-4-yl)-phenyl]-1,3-dihydro-benzo[b][1,4]diazepin-2-one] |
| 143 | CC(C)N(C)c1cc2c(cc1Cl)NC(=O)CC(c1cccc(-c3ccnc(CO)c3)c1)=N2 [Example 367, 8-Chloro-4-[3-(2-hydroxymethyl-pyridin-4-yl)-phenyl]-7-(isopropyl-methyl-amino)-1,3-dihydro-benzo[b][1,4]diazepin-2-one] |
